The values below come from patent US8840898B2, “Immunoconjugates targeting syndecan-1 expressing cells and use thereof” (priority 2004, dated 2014).

For data set [1], the system named is CD138- cell lines SUDHL4 and WSU-WM. Briefly: Colorimetric survival assay (MTT), CD138- cells. The class given is cell-based, human. The conditions noted are these: 1-50 nM or equimolar concentrations, up to 96 h. As to the method: (§1) Survival of CD138^+ and CD138^− cells upon administration of B-B4-DM1, B-B4 and DM1 was examined using a tetrazolium colorimetric assay (CellTiter 96® Non-Radioactive Cell Proliferation Assay; Promega, Wis.), as previously described (Mossmann, 1983). Cells (1×10^4) were plated in 24-well plates in 1 ml RPMI complete medium and then treated as indicated. At the end of each treatment, cells were incubated with 150 μl of Dye Solution and then incubated for 4 h at 37° C. A solubilization/stop solution was then added to each well under vigorous pipetting to dissolve the formazan crystals. Absorbance was measured at 570 nm, and cell viability was estimated as percentage of untreated controls. All experiments were repeated 3 times, and each experimental condition was repeated in triplicate wells in each experiment. Data reported are average values±SD of 3 representative experiments.
(§2) The effects of B-B4-DM1 on survival of CD138^+ (MM-1S, MM-1R, Ocy-My5) and CD138^− cells (SUDHL-4 and WSU-WM) were determined using an MTT assay. […] Cell survival was measured using an MTT assay. […] CD138^+ MM cell lines MM-1S, MM-1R and Ocy-My5 were evaluated as well as CD138^− cell lines including the lymphoma cell line SUDHL4 and the Waldestrom's Macroglobulinemia cell line WSU-WM.

The subject of another data set is CD138+ Ocy-My5 MM cells. Briefly: Detection of apoptosis (Annexin V / PI). The format is cell-based, human. Conditions: 10 nM, 48 h exposure. As to the method:
Dual staining with FITC-labeled Annexin V and propidium iodide (PI) was carried out to detect induction of apoptotic cell death by B-B4-DM1. After treatment of 1×10^6 tumor cells for 48 h, cells were washed with PBS and re-suspended in 100 µl of HEPES buffer containing Annexin V-FITC and propidium iodide (PI) (Annexin V-FLUOS staining kit; Roche Diagnostic, Indianapolis, Ind.). Following 15 min incubation at room temperature, cells were analyzed using a Coulter Epics XL flow cytometer for the presence of an Annexin V-FITC-positive/PI-negative apoptotic cell population.
[…] Apoptotic cell death was then measured by staining with annexin V and PI and flow cytometric analysis.
Percentages of stained cells are reported in each quadrant. […] Ocy-My5 MM cells were exposed to B-B4 mAb (13.3 μg/ml) or B-B4-DM1 (10 nM) for 48 h, labeled with PI, and analyzed using flow cytometry. Percentages of cells in the S-phase (S) and G2/M phase (G2) are indicated.

Data set [2] relates to CD138+ MM cell lines MM-1S, MM-1R and Ocy-My5. Description: Colorimetric survival assay (MTT), CD138+ cells. The format is cell-based, human. Conditions: 1-50 nM or equimolar concentrations, up to 96 h. As to the method:
as §1, §2

In data set [3] the test system is CD138+ Ocy-My5 MM cells adherent to BMSC. Briefly: Cell proliferation assay ([3H]-thymidine) on cells adherent to BMSC, Ocy-My5. Conditions: 10 nM, 72 h treatment. The format is cell-based, human. As to the method: (§3) The effect of B-B4-DM1 on cell proliferation was measured by the extent of [^3H]-thymidine (NEN Life Science Products, Boston, Mass.) incorporation. Cells (2×10^4 cells/well) were incubated in 96-well culture plates in the presence of 70%-80% confluent BMSCs at 37° C. with or without a test-agent (in triplicate wells). [^3H]-thymidine (0.5 μCi) was then added to each well for the last 8 h. Cells were harvested onto glass filters with an automatic cell harvester (Cambridge Technology, Cambridge, Mass.) and counted using a Micro-Beta® Trilux counter (Wallac, Gaithersburgh, Md.).
(§4) Since adhesion of MM cells to BMSC (bone marrow stromal cells) protects MM cells against drug-induced apoptosis, the effect of B-B4-DM1 on proliferation of CD138^+ (Ocy-My5) MM and CD138^− (SUDHL-4) LB cells adherent to BMSC was evaluated.
(§5) Ocy-My5 (FIG. 3A) or SUDHL-4 (FIG. 3B) cells (2×10^4) were seeded on 70%-80% confluent BMSC for 24 h. Cell proliferation was measured by [^3H]thymidine incorporation following 72 h treatment with B-B4-DM1 (10 nM). Values represent the mean [^3H]-TdR incorporation (cpm) of triplicate cultures.

The conditions of data set [4]: cited from earlier work.
In data set [5] the test system is CD138- SUDHL-4 cells adherent to BMSC. Description: Cell proliferation assay ([3H]-thymidine) on cells adherent to BMSC, SUDHL-4. The format is cell-based, human. Conditions: SUDHL-4 on BMSC; 10 nM; 72 h treatment. As to the method:
as §3, §4, §5

For data set [6] the following is noted: cited from earlier work. The source holds these as a separate data set.

Consider `COc1cc2cc(c1Cl)N(C)C(=O)C[C@H](OC(=O)[C@H](C)N(C)C(=O)CCS)[C@]1(C)O[C@H]1[C@H](C)[C@@H]1C[C@@](O)(NC(=O)O1)[C@H](OC)/C=C/C=C(\C)C2` [DM1, N^2-deacetyl-N^2-(3-mercapto-1-oxopropyl)-maytansine], for which the “Cell survival / growth (MTT assay)” value in data set [1] was “equally and highly cytotoxic”; in data set [2] it was “equally and highly cytotoxic”. Besides, the “annexin V+/PI- and annexin V+/PI+ fractions (apoptotic cell death)” value in the data set on CD138+ Ocy-My5 MM cells is “significant increase”. In addition, the “Cell proliferation ([3H]thymidine incorporation)” value in data set [3] and in data set [5] was “cytotoxic to both cell lines” throughout. In data set [4] (more cytotoxic), the “Cytotoxicity relative to maytansine” value is recorded as 3- to 10 fold.

Consider `COc1cc2cc(c1Cl)N(C)C(=O)C[C@H](OC(=O)[C@H](C)N(C)C(C)=O)[C@]1(C)O[C@H]1[C@H](C)[C@@H]1C[C@@](O)(NC(=O)O1)[C@H](OC)/C=C/C=C(\C)C2` [maytansine], for which the “Cytotoxicity relative to anti-cancer drugs in clinical use that affect tubulin polymerization (Vinca alkaloids, taxol)” value in data set [4] (higher) was 200-1000 fold. Also, the “Adverse effects in clinical trials” value in data set [6] is “serious adverse effects on the central nervous system and gastrointestinal system”.
